Reference: ChEMBL document CHEMBL1125018, “Evidence for nitroxyl in the catalase-mediated bioactivation of the alcohol deterrent agent cyanamide” (J Med Chem, 1990)
“And” between values parts separate entries of the source, which are not always exact repeats. Equal entries are not always repeated.

What was measured:
[1] = Nitrous oxide formed in the oxidation of U-labeled [N15]-cyanamide by catalase/glucose-glucose oxidase using gas chromatography
[2] = Nitrous oxide formed in the oxidation of unlabeled cyanamide by catalase/glucose-glucose oxidase using gas chromatography.
[3] = Nitrous oxide formed in the oxidation of 15NH2-labeled cyanamide by catalase/glucose-glucose oxidase using gas chromatography.

## N#CN
[1]
  N20 formed: 538 nM
[2]
  N20 formed: 497 nM and 440 nM
[3]
  N20 formed: 186 nM
